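GI50: concentration for 50% inhibition of growth. TGI is the concentration that stops growth completely.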
How the values were obtained:
Test in all cases: inhibition of tumour cell growth, NCI panel, 384-well format
[1] = tested on: SF-295 CNS
[2] = tested on: NCI-H322M lung
[3] = tested on: HOP-62 NSCLC
[4] = tested on: SN12C renal
[5] = tested on: 786-0 renal
[6] = tested on: MCF7 breast
[7] = tested on: M14 melanoma
[8] = tested on: SK-MEL-5 melanoma
[9] = tested on: SK-MEL-28 melanoma
[10] = tested on: HL-60(TB) leukemia
[11] = tested on: EKVX NSCLC
[12] = tested on: UACC-257 melanoma
[13] = tested on: SNB-75 CNS
[14] = tested on: LOX IMVI melanoma
[15] = tested on: A498 renal
[16] = tested on: UO-31 renal
[17] = tested on: NCI-H226 lung
[18] = tested on: RXF 393 renal
[19] = tested on: CAKI-1 renal
[20] = tested on: SW-620 colon
[21] = tested on: SNB-19 CNS
[22] = tested on: NCI-H522 lung
[23] = tested on: COLO 205 colon
[24] = tested on: HCT-15 colon
[25] = tested on: NCI/ADR-RES ovarian
[26] = tested on: MDA-MB-468 breast
[27] = tested on: MDA-MB-435 melanoma
[28] = tested on: OVCAR-4 ovarian
[29] = tested on: A549 NSCLC
[30] = tested on: ACHN renal
[31] = tested on: MDA-MB-231 breast
[32] = tested on: IGROV1 ovarian
[33] = tested on: SF-268 CNS
[34] = tested on: DU-145 prostate
[35] = tested on: NCI-H460 NSCLC
[36] = tested on: PC-3 prostate
[37] = tested on: SR leukemia
[38] = tested on: UACC-62 melanoma
[39] = tested on: OVCAR-5 ovarian
[40] = tested on: SK-OV-3 ovarian
[41] = tested on: SF-539 CNS
[42] = tested on: NCI-H23 lung
[43] = tested on: HCT-116 colon
[44] = tested on: KM12 colon
[45] = tested on: OVCAR-3 ovarian
[46] = tested on: HOP-92 NSCLC
[47] = tested on: OVCAR-8 ovarian
[48] = tested on: HS 578T breast
[49] = tested on: TK-10 renal
[50] = tested on: RPMI-8226 leukemia
[51] = tested on: BT-549 breast
[52] = tested on: MALME-3M melanoma
[53] = tested on: U251 glioblastoma
[54] = tested on: HCC-2998 colon
[55] = tested on: T-47D breast
[56] = tested on: MOLT-4 leukemia

For `C#CCC(Cc1cnc2nc(N)nc(N)c2n1)c1ccc(C(=O)N[C@@H](CCC(=O)O)C(=O)O)cc1` (some centres not stated), the GI50 [1] was < 10 nM, the TGI [1] was < 10 nM and the GI50 [2] was < 10 nM. For the same compound, the TGI [2] was < 10 nM, the GI50 [3] was < 10 nM and the TGI [3] was < 10 nM. For the same compound, the GI50 [4] was < 10 nM, the TGI [4] was < 10 nM and the GI50 [5] was < 10 nM. For the same compound, the TGI [5] was < 10 nM, the GI50 [6] was < 10 nM and the TGI [6] was > 100000 nM. For the same compound, the GI50 [7] was < 10 nM, the TGI [7] was < 10 nM and the GI50 [8] was < 10 nM. For the same compound, the TGI [8] was < 10 nM, the GI50 [9] was < 10 nM and the TGI [9] was < 10 nM. For the same compound, the GI50 [10] was < 10 nM, the TGI [10] was < 10 nM and the GI50 [11] was < 10 nM. For the same compound, the TGI [11] was < 10 nM, the GI50 [12] was < 10 nM and the TGI [12] was < 10 nM. The GI50 [13] was < 10 nM, the TGI [13] was < 10 nM and the GI50 [14] was < 10 nM. The TGI [14] was < 10 nM, the GI50 [15] was < 10 nM and the TGI [15] was < 10 nM. The GI50 [16] was < 10 nM, the TGI [16] was < 10 nM and the GI50 [17] was < 10 nM. The TGI [17] was < 10 nM, the GI50 [18] was < 10 nM and the TGI [18] was < 10 nM. For the same compound, the GI50 [19] was < 10 nM, the TGI [19] was < 10 nM and the GI50 [20] was < 10 nM. The TGI [20] was < 10 nM, the GI50 [21] was < 10 nM and the TGI [21] was < 10 nM. For the same compound, the GI50 [22] was < 10 nM, the TGI [22] was < 10 nM and the GI50 [23] was < 10 nM. The TGI [23] was < 10 nM, the GI50 [24] was < 10 nM and the TGI [24] was > 100000 nM. For the same compound, the GI50 [25] was < 10 nM, the TGI [25] was < 10 nM and the GI50 [26] was < 10 nM. For the same compound, the TGI [26] was < 10 nM, the GI50 [27] was < 10 nM and the TGI [27] was < 10 nM. For the same compound, the GI50 [28] was < 10 nM, the TGI [28] was < 10 nM and the GI50 [29] was < 10 nM. The TGI [29] was < 10 nM, the GI50 [30] was < 10 nM and the TGI [30] was < 10 nM. The GI50 [31] was 905 nM, the TGI [31] was 2410 nM and the GI50 [32] was < 10 nM. The TGI [32] was < 10 nM, the GI50 [33] was < 10 nM and the TGI [33] was < 10 nM. For the same compound, the GI50 [34] was < 10 nM, the TGI [34] was > 100000 nM and the GI50 [35] was < 10 nM. The TGI [35] was > 100000 nM, the GI50 [36] was < 10 nM and the TGI [36] was < 10 nM. For the same compound, the GI50 [37] was < 10 nM, the TGI [37] was < 10 nM and the GI50 [38] was < 10 nM. The TGI [38] was < 10 nM, the GI50 [39] was < 10 nM and the TGI [39] was < 10 nM. The GI50 [40] was < 10 nM, the TGI [40] was < 10 nM and the GI50 [41] was < 10 nM. For the same compound, the TGI [41] was < 10 nM, the GI50 [42] was < 10 nM and the TGI [42] was < 10 nM. The GI50 [43] was < 10 nM, the TGI [43] was > 100000 nM and the GI50 [44] was < 10 nM. For the same compound, the TGI [44] was > 100000 nM, the GI50 [45] was < 10 nM and the TGI [45] was < 10 nM. The GI50 [46] was < 10 nM, the TGI [46] was < 10 nM and the GI50 [47] was < 10 nM. For the same compound, the TGI [47] was < 10 nM, the GI50 [48] was < 10 nM and the TGI [48] was < 10 nM. For the same compound, the GI50 [49] was < 10 nM, the TGI [49] was < 10 nM and the GI50 [50] was < 10 nM. The TGI [50] was < 10 nM, the GI50 [51] was < 10 nM and the TGI [51] was < 10 nM. For the same compound, the GI50 [52] was < 10 nM, the TGI [52] was < 10 nM and the GI50 [53] was < 10 nM. For the same compound, the TGI [53] was < 10 nM, the GI50 [54] was < 10 nM and the TGI [54] was > 100000 nM. The GI50 [55] was < 10 nM, the TGI [55] was < 10 nM and the GI50 [56] was < 10 nM. For the same compound, the TGI [56] was < 10 nM.

Source: PubChem BioAssay (NCI)
